# According to patent US9127001B2, “Substituted 4,5,6,7-tetrahydro-1H-pyrazolo[4,3-c]pyridines, their use as medicament, and pharmaceutical preparations comprising them” (Sanofi, priority 2011, dated 2015):
# pIC50: −log10 of the molar value.
# Target: Human TASK-1 channels (Homo sapiens (Human), UniProt O14649)
# Assay: Activity on the TASK-1 channel in Xenopus oocytes (two-microelectrode voltage clamp)
# Assay type: cell-based
# Conditions: not given
# Experimental: Human TASK-1 channels were expressed in Xenopus oocytes. For this purpose, oocytes were isolated from Xenopus laevis and defoliculated. Subsequently, TASK-1-encoding RNA synthesized in vitro was injected into oocytes. […] Data were acquired and analyzed using a TEC-10cx amplifier (NPI Electronic, Tamm, Germany) connected to an ITC-16 interface (Instrutech Corp., Long Island, USA) and Pulse software (HEKA Elektronik, Lambrecht, Germany). […] Oocytes were continuously superfused with ND96 buffer containing: NaCl 96 mM, KCl 2 mM, CaCl2 1.8 mM, MgCl2 1 mM, HEPES 5 mM (pH adjusted to 7.4 with NaOH). All experiments were performed at room temperature.
# Test substances were consecutively added to the bath solution at rising concentrations. […] IC50 values were obtained by fitting the data to the general dose-response equation.
# Human TASK-1 channels, sequence (O14649 whole entry): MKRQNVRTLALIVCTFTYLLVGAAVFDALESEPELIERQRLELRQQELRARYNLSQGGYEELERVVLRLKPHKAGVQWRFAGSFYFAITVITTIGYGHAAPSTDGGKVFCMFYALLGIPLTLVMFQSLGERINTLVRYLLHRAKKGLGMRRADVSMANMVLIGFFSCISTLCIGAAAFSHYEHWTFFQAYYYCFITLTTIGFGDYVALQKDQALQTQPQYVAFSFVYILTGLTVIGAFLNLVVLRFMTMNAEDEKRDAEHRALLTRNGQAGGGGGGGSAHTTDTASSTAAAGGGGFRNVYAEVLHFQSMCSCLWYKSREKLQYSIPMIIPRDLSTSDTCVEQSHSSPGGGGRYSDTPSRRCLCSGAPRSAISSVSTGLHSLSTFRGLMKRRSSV
row,SMILES,inhibition at 5 µM [%]
1,"CC(=O)N1CCc2c(c(-c3cc(C)ccn3)nn2Cc2ccc(F)cc2F)C1 [Example 6x, 1-[1-(2,4-Difluoro-benzyl)-3-(4-methyl-pyridin-2-yl)-1,4,6,7-tetrahydro-pyrazolo[4,3-c]pyridin-5-yl]-ethanone]",82
2,"CC(=O)N1CCc2c(c(-c3cccc(C)n3)nn2Cc2ccc(F)cc2F)C1 [Example 6v, 1-[1-(2,4-Difluoro-benzyl)-3-(6-methyl-pyridin-2-yl)-1,4,6,7-tetrahydro-pyrazolo[4,3-c]pyridin-5-yl]-ethanone]",73
3,"COc1ccccc1Cn1nc(-c2cccc(C(F)(F)F)c2)c2c1CCN(C(C)=O)C2 [Example 6bc, 1-[1-(2-Methoxy-benzyl)-3-(3-trifluoromethyl-phenyl)-1,4,6,7-tetrahydro-pyrazolo[4,3-c]pyridin-5-yl]-ethanone]",70
4,"CC(=O)N1CCc2c(c(-c3cccc(C(F)(F)F)c3)nn2Cc2nccs2)C1 [Example 6ae, 1-[1-Thiazol-2-ylmethyl-3-(3-trifluoromethyl-phenyl)-1,4,6,7-tetrahydro-pyrazolo[4,3-c]pyridin-5-yl]-ethanone]",84
5,"CN(CCO)C(=O)N1CCc2c(c(-c3cccc(C#N)c3)nn2Cc2ccc(F)cc2F)C1 [Example 12e, 3-(3-Cyano-phenyl)-1-(2,4-difluoro-benzyl)-1,4,6,7-tetrahydro-pyrazolo[4,3-c]pyridine-5-carboxylic acid (2-hydroxy-ethyl)-methyl-amide]",65
6,"CC(=O)N1CCc2c(c(-c3cccc(C)c3)nn2Cc2ccccc2F)C1 [Example 6bb, 1-[1-(2-Fluoro-benzyl)-3-m-tolyl-1,4,6,7-tetrahydro-pyrazolo[4,3-c]pyridin-5-yl]-ethanone]",82
7,"CC(=O)N1CCc2c(c(-c3cccc(Cl)c3)nn2Cc2ccc(Cl)s2)C1 [Example 6aj, 1-[3-(3-Chloro-phenyl)-1-(5-chloro-thiophen-2-ylmethyl)-1,4,6,7-tetrahydro-pyrazolo[4,3-c]pyridin-5-yl]-ethanone]",76
8,"COc1ccnc(-c2nn(Cc3ccc(F)cc3F)c3c2CN(C(C)=O)CC3)c1 [Example 6ac, 1-[1-(2,4-Difluoro-benzyl)-3-(4-methoxy-pyridin-2-yl)-1,4,6,7-tetrahydro-pyrazolo[4,3-c]pyridin-5-yl]-ethanone]",80
9,"CC(=O)N1CCc2c(c(-c3cccc(C)c3)nn2Cc2ccc(Cl)nc2)C1 [Example 6p, 1-[1-(6-Chloro-pyridin-3-ylmethyl)-3-m-tolyl-1,4,6,7-tetrahydro-pyrazolo[4,3-c]pyridin-5-yl]-ethanone]",88
10,"CCNC(=O)N1CCc2c(c(-c3cccc(C#N)c3)nn2Cc2ccc(F)cc2F)C1 [Example 11h, 3-(3-Cyano-phenyl)-1-(2,4-difluoro-benzyl)-1,4,6,7-tetrahydro-pyrazolo[4,3-c]pyridine-5-carboxylic acid ethylamide]",91
11,"CN(C)C(=O)N1CCc2c(c(-c3cccc(C#N)c3)nn2Cc2ccc(F)cc2F)C1 [Example 12d, 3-(3-Cyano-phenyl)-1-(2,4-difluoro-benzyl)-1,4,6,7-tetrahydro-pyrazolo[4,3-c]pyridine-5-carboxylic acid dimethylamide]",74
12,"CC(=O)N1CCc2c(c(-c3cccc(C(F)(F)F)n3)nn2C(C)c2ccc(F)cc2)C1 (centres unmarked) [Example 6u, 1-[1-[1-(4-Fluoro-phenyl)-ethyl]-3-(6-trifluoromethyl-pyridin-2-yl)-1,4,6,7-tetrahydro-pyrazolo[4,3-c]pyridin-5-yl]-ethanone]",89

# Same assay, conditions: human TASK-1 expressed in Xenopus oocytes, currents during pulses to 40 mV, room temperature
row,SMILES,pIC50
1,"CC1(C(=O)N2CCc3c(c(-c4cccc(C#N)c4)nn3Cc3ccc(F)cc3F)C2)COC1 [Example 8a, 3-[1-(2,4-Difluoro-benzyl)-5-(3-methyl-oxetane-3-carbonyl)-4,5,6,7-tetrahydro-1H-pyrazolo[4,3-c]pyridin-3-yl]-benzonitrile]",6.56
2,"CNC(=O)N1CCc2c(c(-c3cccc(C#N)c3)nn2Cc2ccc(F)cc2F)C1 [Example 12a, 3-(3-Cyano-phenyl)-1-(2,4-difluoro-benzyl)-1,4,6,7-tetrahydro-pyrazolo[4,3-c]pyridine-5-carboxylic acid methylamide]",6.42
3,"CCCC(=O)N1CCc2c(c(-c3cccc(C#N)c3)nn2Cc2ccc(F)cc2F)C1 [Example 8s, 3-[5-Butyryl-1-(2,4-difluoro-benzyl)-4,5,6,7-tetrahydro-1H-pyrazolo[4,3-c]pyridin-3-yl]-benzonitrile]",> 5.00
4,"N#Cc1cccc(-c2nn(Cc3ccc(F)cc3F)c3c2CN(C(=O)C2CC2)CC3)c1 [Example 8c, 3-[5-Cyclopropanecarbonyl-1-(2,4-difluoro-benzyl)-4,5,6,7-tetrahydro-1H-pyrazolo[4,3-c]pyridin-3-yl]-benzonitrile]",7.33
5,"CC(=O)N1CCc2c(c(-c3cc(C#N)ccn3)nn2Cc2ccc(F)cc2F)C1 [Example 13a, 2-[5-Acetyl-1-(2,4-difluoro-benzyl)-4,5,6,7-tetrahydro-1H-pyrazolo[4,3-c]pyridin-3-yl]-isonicotinonitrile]",6.37
6,"CC(C)C(=O)N1CCc2c(c(-c3cccc(C#N)c3)nn2Cc2ccc(F)cc2F)C1 [Example 8b, 3-[1-(2,4-Difluoro-benzyl)-5-isobutyryl-4,5,6,7-tetrahydro-1H-pyrazolo[4,3-c]pyridin-3-yl]-benzonitrile]",7.72
7,"CC(=O)N1C2CCC1c1c(-c3cccc(C#N)c3)nn(Cc3ccc(F)cc3F)c1C2 (centres unmarked) [Example 6n, 3-[11-Acetyl-5-(2,4-difluoro-benzyl)-4,5,11-triaza-tricyclo[6.2.1.02,6]undeca-2(6),3-dien-3-yl]-benzonitrile]",7.04
8,"CC(=O)N1CCc2c(c(-c3cccc(C(F)(F)F)n3)nn2Cc2ccc(F)cc2)C1 [Example 6g, 1-[1-(4-Fluoro-benzyl)-3-(6-trifluoromethyl-pyridin-2-yl)-1,4,6,7-tetrahydro-pyrazolo[4,3-c]pyridin-5-yl]-ethanone]",7.00
9,"CCC(=O)N1CCc2c(c(-c3cccc(C#N)c3)nn2Cc2ccc(F)cc2F)C1 [Example 8p, 3-[1-(2,4-Difluoro-benzyl)-5-propionyl-4,5,6,7-tetrahydro-1H-pyrazolo[4,3-c]pyridin-3-yl]-benzonitrile]",6.28
10,"CC(=O)N1CCc2c(c(-c3cncc(Br)c3)nn2Cc2ccc(F)cc2F)C1 [Example 6m, 1-[3-(5-Bromo-pyridin-3-yl)-1-(2,4-difluoro-benzyl)-1,4,6,7-tetrahydro-pyrazolo[4,3-c]pyridin-5-yl]-ethanone]",5.61
11,"C[C@H](O)C(=O)N1CCc2c(c(-c3cccc(C#N)c3)nn2Cc2ccc(F)cc2F)C1 [Example 8q, 3-[1-(2,4-Difluoro-benzyl)-5-((S)-2-hydroxy-propionyl)-4,5,6,7-tetrahydro-1H-pyrazolo[4,3-c]pyridin-3-yl]-benzonitrile]",6.12
12,"O=C(c1ccc(F)cc1)N1CCc2c(c(-c3ccc(F)cc3)nn2Cc2ccccc2)C1 [Example 8f, [1-Benzyl-3-(4-fluoro-phenyl)-1,4,6,7-tetrahydro-pyrazolo[4,3-c]pyridin-5-yl]-(4-fluoro-phenyl)-methanone]",5.89
13,"CC(=O)N1CCc2c(c(-c3ccc(F)cc3)nn2C(c2ccc(F)cc2)C2CC2)C1 (centres unmarked) [Example 6ao, 1-[1-[Cyclopropyl-(4-fluoro-phenyl)-methyl]-3-(4-fluoro-phenyl)-1,4,6,7-tetrahydro-pyrazolo[4,3-c]pyridin-5-yl]-ethanone]",6.59
14,"CC(=O)N1CCc2c(c(-c3cccc(C#N)n3)nn2Cc2ccc(F)cc2F)C1 [Example 13b, 6-[5-Acetyl-1-(2,4-difluoro-benzyl)-4,5,6,7-tetrahydro-1H-pyrazolo[4,3-c]pyridin-3-yl]-pyridine-2-carbonitrile]",6.34
15,"N#Cc1cccc(-c2nn(Cc3ccc(F)cc3F)c3c2CN(C(=O)c2ccccn2)CC3)c1 [Example 8t, 3-[1-(2,4-Difluoro-benzyl)-5-(pyridine-2-carbonyl)-4,5,6,7-tetrahydro-1H-pyrazolo[4,3-c]pyridin-3-yl]-benzonitrile]",6.61
16,"N#Cc1cccc(-c2nn(Cc3ccc(F)cc3F)c3c2CN(C(=O)C2CCC2)CC3)c1 [Example 8i, 3-[5-Cyclobutane-carbonyl-1-(2,4-difluoro-benzyl)-4,5,6,7-tetrahydro-1H-pyrazolo[4,3-c]pyridin-3-yl]-benzonitrile]",7.19
17,"CC(=O)N1CCc2c(c(-c3ccc(Cl)s3)nn2Cc2ccc(F)cc2F)C1 [Example 6ak, 1-[3-(5-Chloro-thiophen-2-yl)-1-(2,4-difluoro-benzyl)-1,4,6,7-tetrahydro-pyrazolo[4,3-c]pyridin-5-yl]-ethanone]",6.57
18,"CC(=O)N1Cc2c(-c3ccc(F)cc3)nn(Cc3ccc(F)cc3F)c2CC1C (centres unmarked) [Example 8z, 1-[1-(2,4-Difluoro-benzyl)-3-(4-fluoro-phenyl)-6-methyl-1,4,6,7-tetrahydro-pyrazolo[4,3-c]pyridin-5-yl]-ethanone]",6.29
19,"COc1ccc(F)c(-c2nn(Cc3ccc(F)cc3F)c3c2CN(C(C)=O)CC3)c1 [Example 6bh, 1-[1-(2,4-Difluoro-benzyl)-3-(2-fluoro-5-methoxy-phenyl)-1,4,6,7-tetrahydro-pyrazolo[4,3-c]pyridin-5-yl]-ethanone]",> 5.00
20,"CC(=O)N1CCc2c(c(-c3ccc(F)cc3)nn2C(C)c2ccc(F)cc2)C1 (single isomer, unassigned; (-)) [Example 6bf, (−)-1-{3-(4-Fluoro-phenyl)-1-[1-(4-fluoro-phenyl)-ethyl]-1,4,6,7-tetrahydro-pyrazolo[4,3-c]pyridin-5-yl}-ethanone]",6.30
